Data on 92 molecules can be found in the RepoRT retention time repository.

The structures appear in SMILES notation.

This series can be described thus: Waters ACQUITY UPLC HSS T3, 0.4 mL/min; A: water + 0.1% formic acid; B: acetonitrile + 0.1% formic acid; gradient (min/%B) 0/5 1.5/5 12/95 14/95 14.01/100 17/100. Particulars: stereoisomer not certain.

Regarding `C=C1CCC2C(OC(=O)C2(O)CO)C2C(C)C(=O)CC12` (configuration not stated), the LC retention time came out at 6.31 min.
As for `CCCCCC(O)C=CC=CCC=CCC=CCCCC(=O)NCCS(=O)(=O)O` (configuration not stated), the figure is 4.09 min; as for `CC(C)C(=O)OC(CC(=O)[O-])C[N+](C)(C)C` (configuration not stated), 3 min; as for `CCCCN(CCCN(CCCN(CCCN)CCCN)CCCN(CCCN)CCCN)CCCN(CCCN(CCCN)CCCN)CCCN(CCCN)CCCN`, 0.706 min.
In the case of `CCCCCC1OC(=O)C(C(C)CC)N(C)C(=O)C2CCCN2C(=O)C(C(C)C)OC(=O)C(Cc2ccccc2)N(C)C(=O)C(C(C)C)NC(=O)C1C` (configuration not stated) it was 9.85 min.
`CCCCCCC=CCCCCCCCC(=O)OCC(COP(=O)(O)OCC(O)CO)OC(=O)CCCCCCCC=CCCCCCC` (configuration not stated): the LC retention time was 13 min.
In the case of `COc1cc2c(cc1OC)CN(C)CC2` it was 4.98 min.
In the case of `CN(C)C` it was 0.706 min; in that of `CCC=CCC=CCC=CCC=CCC=CCC=CCCC(=O)OCC(O)COP(=O)(O)OCCN` (configuration not stated), 4.65 min; in that of `CNC(CCC(=O)O)C(=O)O` (configuration not stated), 0.912 min.
As for `CC1(C)OC2(CO)CCC1CC2OC1OC(CO)C(O)C(O)C1O` (configuration not stated), the LC retention time was found to be 3.99 min.
As for `C[N+](C)(C)CCCC(=O)[O-]`, the figure is 0.772 min; as for `C=C1C(=O)OC2C1CCC(=O)CC1(C)CCC(O)OC21` (configuration not stated), 6.31 min; as for `CC(C)C(N)C(=O)O` (configuration not stated), 1.02 min.
`C=C(CCC)C(N)C(=O)O` (configuration not stated): the LC retention time was 0.818 min.
As for `CC1(OC2OC(CO)C(O)C(O)C2O)CC(O)C2(C(C)(C)O)CC12` (configuration not stated), the figure is 3.99 min; as for `CN1CC(c2ccc(O)cc2)OC1(C)C` (configuration not stated), 4.98 min.
In the case of `CSCCC(N)C(=O)O` (configuration not stated) it was 1.04 min; in that of `CC=CC=CC=CC1=NCCCC1`, 9.09 min.
In the case of `CCC(C(=O)CC(C)C1=C(O)C(=O)C2C3CCC4CC(OC5OC(C(=O)O)C(O)C(O)C5O)CCC4(C)C3CCC12C)C(C)C` (configuration not stated) it was 11 min; in that of `CCCCCCCCCCCCCCCCCC(=O)OC(CO)COP(=O)(O)OCC(O)CO` (configuration not stated), 5.64 min.
`C[N+](C)(C)CCOP(=O)([O-])O`: the LC retention time amounted to 0.761 min.
Consider `CC1CCC2C(C)C3C(CC4C5CC=C6CC(OC7OC(CO)C(O)C(OC8OC(CO)C(O)C(O)C8O)C7O)CCC6(C)C5CCC43C)N2C1` (configuration not stated), for which the LC retention time turned out to be 9.86 min.
As for `CC(=O)NC(CC(C)C)C(=O)NC(CC(C)C)C(=O)NC(C=O)CCCN=C(N)N` (configuration not stated), the figure is 12.2 min; as for `Nc1nc2c(ncn2C2CC(O)C(COP(=O)(O)O)O2)c(=O)[nH]1` (configuration not stated), 0.934 min; as for `CC1(C)CCC2(C(=O)O)CCC3(C)C(=CCC4C5(C)CC(O)C(OC(=O)C=Cc6ccc(O)cc6)C(C)(C)C5CCC43C)C2C1` (configuration not stated), 11 min.
`CC(=O)OC(CC(=O)[O-])C[N+](C)(C)C` (configuration not stated): the LC retention time is 0.839 min.
In the case of `CC(C)=CC1c2[nH]c3ccccc3c2CC2C(=O)N3CCCC3C(=O)N21` (configuration not stated) it was 3.99 min.
In the case of `CC(CCc1ccccc1)NCC(O)c1ccc(O)c(C(N)=O)c1` (configuration not stated) it was 4.52 min; in that of `CCCCCC=CCC=CCCCCCCCC(=O)OC(COC(=O)CCCCCCCC=CCCCCCC)COP(=O)(O)OCC(O)CO` (configuration not stated), 13.9 min; in that of `CC(=CC(=O)OC1OC(CO)C(O)C(O)C1O)CCC=C(C)CCC(O)C(C)(C)O` (configuration not stated), 9.03 min.
In the case of `NCCCCC(=O)O`, the LC retention time came out at 1.02 min.
As for `CSCCC(N)C(=O)NC(CCCN=C(N)N)C(=O)O` (configuration not stated), the figure is 3.75 min.
With `CCCCCC(=O)OCCC(CCC)SC` (configuration not stated), the LC retention time turned out to be 3.91 min.
Consider `OC1CC2CC(O)C(C1)N2` (configuration not stated), for which the LC retention time was determined as 0.818 min.
For the molecule `CC1C(=O)OC2C3=C(C(=O)CC3(C)O)C(C)(O)CCC12` (configuration not stated), the LC retention time was determined as 6.31 min.
As for `Nc1[nH]c(=O)nc2c1ncn2C1CC(O)C(COP(=O)(O)O)O1` (configuration not stated), the LC retention time came out at 0.934 min.
`COc1ccc(COC2OC(CO)C(O)C(O)C2OS(=O)(=O)O)cc1` (configuration not stated): the LC retention time amounted to 0.842 min.
As for `CCCCCC=CCC=CCC=CCCCCC(=O)OCC(COP(=O)(O)OCC(O)CO)OC(=O)CCCCCCCCCCCCCCC` (configuration not stated), the figure is 13.9 min; as for `Cc1c(C)c(C(=O)C(C)O)n2c1CCC2` (configuration not stated), 4.98 min.
As for `CNc1ccccc1C(=O)OCC(C)C`, the figure is 4.98 min.
In the case of `CCC(C)C(N)C(=O)O` (configuration not stated) it was 1.31 min; in that of `CC1=C2C(CC3(C)OC3CCC3(C)OC3C2O)OC1=O` (configuration not stated), 6.31 min; in that of `C[N+](C)(C)CCOP(=O)([O-])OCC(O)CO` (configuration not stated), 0.761 min.
In the case of `CC1CCC2(C(=O)O)CCC3(C)C(=CCC4C5(C)CC(O)C(OC(=O)C=Cc6ccc(O)cc6)C(C)(C)C5CCC43C)C2C1C` (configuration not stated), the LC retention time stood at 11 min.
As for `Nc1ccnc(=O)[nH]1`, the figure is 1.02 min.
In the case of `Oc1cc(O)c2c(c1)OC(c1cc(O)c(O)c(O)c1)C(O)C2` (configuration not stated) it was 1.05 min.
As for `CC1=CC(c2c(O)c(C(=O)CCc3ccccc3)c(O)c(C3C=C(C)CCC3C(C)C)c2O)C(C(C)C)CC1` (configuration not stated), the LC retention time was 11 min.
As to `CCCCCC=CCC=CCC=CCCCCC(=O)OC(COC(=O)CCCCCCCCCCCCCCC)COP(=O)(O)OCC(O)CO` (configuration not stated), the LC retention time was 13.9 min.
Regarding `C=C1C(=O)OC2C1CC=C1CC(C)(CCC1OO)C2O` (configuration not stated), the LC retention time was 6.31 min.
As for `C=CCC=CCC=CCCCCCCCC(C(=O)OC)C(=O)C(=CC(=O)OC)OC` (configuration not stated), the figure is 5.18 min; as for `CNC(CC(=O)O)C(=O)O` (configuration not stated), 0.786 min.
In the case of `CC1CCC2(C(=O)O)CCC3(C)C(=CCC4C5(C)CCC(OC(=O)c6ccccc6)C(C)(C)C5C(=O)CC43C)C2C1C` (configuration not stated) it was 11 min; in that of `C=C(CO)C1CCC(C)(O)C(OC2OC(CO)C(O)C(O)C2O)C1` (configuration not stated), 3.99 min.
Consider `CC(C)=CCCC(C)(O)C1CCC2(C)C1C(O)CC1C3(C)CCC(OC4OC(CO)C(O)C(O)C4OC4OC(CO)C(O)C(O)C4O)C(C)(C)C3CCC12C` (configuration not stated), for which the LC retention time came to 9.82 min.
As for `Cc1cc(O)c2c(c1O)C(=O)C1=C(C2=O)C(=O)C2C(O)C1C1C(O)CC(=O)C3=C(O)c4c(O)cc(C)c(O)c4C(=O)C321` (configuration not stated), the figure is 1.11 min; as for `OCCOCCOCCOCCOCCOCCOCCO`, 3.99 min.
As for `CCC(C)C(C(=O)NC(C(=O)NC1C(=O)NC(Cc2c[nH]c3ccccc23)C(=O)NCC(=O)c2ccc(cc2)OC1(C)C)C(C)C)N(C)C` (configuration not stated), the figure is 5.47 min; as for `CCC(C)C(N)C(=O)NC(CCC(=O)O)C(=O)O` (configuration not stated), 1.05 min.
As for `CCC=CCC=CCC(O)C=CC=CC=CC(O)CCCC(=O)O` (configuration not stated), the figure is 4.99 min.
In the case of `CC(=O)OCC[N+](C)(C)C`, the LC retention time is 0.772 min.
As for `C=Cc1c2[nH]c(c1C)Cc1[nH]c(c(CCC(=O)O)c1C)Cc1[nH]c(c(C)c1CCC(=O)O)Cc1[nH]c(c(C)c1C=C)C2`, the figure is 4.78 min.
In the case of `CCCCCCCCCCCCCCCCCCCCCCCCC(=O)NCC(=O)O` it was 9.77 min.
`CC(C=CCC1C(=O)CCC1CC(=O)O)OC1OC(CO)C(O)C(O)C1O` (configuration not stated): the LC retention time turned out to be 0.755 min.
As for `CCCC(N)C(=O)O` (configuration not stated), the figure is 1.02 min; as for `C=C(C)C1CCC2(C(=O)O)CCC3(C)C(CCC4C5(C)CC(O)C(OC(=O)C=Cc6ccc(O)cc6)C(C)(C)C5CCC43C)C12` (configuration not stated), 11 min.
In the case of `O=c1[nH]cnc2[nH]ncc12` it was 1.1 min.
In the case of `NCCC(=O)O` it was 0.806 min; in that of `CC(C)CC(N)C(=O)NC(CCC(=O)O)C(=O)O` (configuration not stated), 1.05 min.
As for `CCCCCC(N)C(=O)O` (configuration not stated), the LC retention time came out at 0.772 min.
Turning to `CCO[SiH](CCCSCCC[SiH](OCC)OCC)OCC`, the LC retention time was 1.02 min.
As for `Nc1ncnc2c1ncn2C1OC(CO)C(OP(=O)(O)O)C1O` (configuration not stated), the figure is 0.934 min; as for `CC(C)=CCCC(C)CCOC1OC(CO)C(O)C(O)C1OC1OC(CO)C(O)C(O)C1O` (configuration not stated), 4.52 min.
Regarding `CC(CCC(=O)NCCS(=O)(=O)O)C1CCC2C3C(O)CC4CC(O)CCC4(C)C3CC(O)C12C` (configuration not stated), the LC retention time turned out to be 4.43 min.
As for `CCCCCCC=CCCCCCCCC(=O)OC(CO)COP(=O)(O)OCCN` (configuration not stated), the figure is 4.91 min; as for `CCCCCCCCCCCCCCCC(=O)OC1C(C)OC(OC2C(OCCCC)OC(CO)C(O)C2O)C(O)C1O` (configuration not stated), 10.4 min; as for `CCC=CCC(O)C(O)C=CC=CC=CC=CC(O)CC=CCCC(=O)O` (configuration not stated), 5.01 min.
As to `CCC=CCC=CCC=CCC=CCC=CCC=CCCC(=O)OC(CO)COP(=O)(O)OCCN` (configuration not stated), the LC retention time was 4.65 min.
`CCCCCC(=O)CCC1C=CC(=O)C1CC=CCCCC(=O)O` (configuration not stated): the LC retention time was determined as 4.99 min.
In the case of `CCCCC(S)CCOC` (configuration not stated), the LC retention time was 0.75 min.
As to `C=CC(C)(CCC=C(C)CCC=C(C)CCC(OC1OC(CO)C(O)C(O)C1O)C(C)(C)O)OC1OC(CO)C(O)C(O)C1O` (configuration not stated), the LC retention time came out at 4.81 min.
As for `CCCCCCC=CCCCCCCCC(=O)OCC(O)COP(=O)(O)OCCN` (configuration not stated), the figure is 4.91 min; as for `CCC(=O)C1CC(C)C2(CC(=O)C3(C)C4=C(CCC32C)C2(C)C=CC(=O)C(C)(CO)C2CC4)O1` (configuration not stated), 5.53 min; as for `CC(NC(=O)C(N)CC(=O)O)NC(=O)N(C)C(C)(C)C` (configuration not stated), 0.829 min.
Turning to `NCCCCCCCCCCCC(=O)O`, the LC retention time was found to be 6.54 min.
`CC1(C)C2C(O)CC(C)(C2O)C1OC1OC(CO)C(O)C(O)C1O` (configuration not stated): the LC retention time amounted to 3.99 min.
As for `CCCCCON=O`, the figure is 1.02 min; as for `CC(C)N`, 0.706 min; as for `CC(=CC(O)C1OC1(C)C)C1CCC2(C)C1C(O)CC1C3(C)CCC(O)C(C)(C)C3C(OC3OC(CO)C(O)C(O)C3O)CC12C` (configuration not stated), 9.9 min.
In the case of `CCCCCC(C)S` (configuration not stated) it was 1.3 min.
Consider `CC(=O)C1OC1(O)C(C)=CC=CC(C)=CC=CC=C(C)C=CC=C(C)C=CC1=C(C)CCCC1(C)C` (configuration not stated), for which the LC retention time came to 10.4 min.
As for `O=C(O)CC1CCC(=O)C1CC=CCCOC1OC(CO)C(O)C(O)C1O` (configuration not stated), the figure is 0.755 min.
